Source: publication PMC11292009, “Mapping protein binding sites by photoreactive fragment pharmacophores” (Communications Chemistry, 2024)
“Also recorded” adds a separate entry of the source.

Tested on: T1, Kras G12D protein / SOS1 exchange domain
T1 construct: Cytoskeleton, Inc. (SOS1 exchange domain only) GE02
Assay: Kras-SOS exchange assay (MANT-GDP)
Format: biochemical
Details: for normalized signal, Kras-SOS exchange (Figure 4c PhP072 irradiation): Php072 500 uM
Description: MANT-GDP loading assay: Kras^G12D protein was first buffer exchanged into low magnesium buffer (20 mM HEPES-NaOH (pH 7.5), 50 mM NaCl, 0.5 mM MgCl2) using a NAP5 column (catalog no.: 17-0583-1, Cytiva). The proteins were then incubated with 20-fold molar excess of N-methylanthraniloyl (MANT)-GDP (catalog no.: 69244, Sigma-Aldrich) in loading buffer (50 mM NaCl, 20 mM HEPES-NaOH [pH 7.5], 0.5 mM MgCl2, 10 mM EDTA, and 1 mM Dithiothreitol (DTT)) in a total volume of 200 μL at 20 °C for 90 min. The reaction was stopped by adding MgCl2 to a final concentration of 10 mM, then incubated at 20 °C for 30 min. The unbound MANT-GDP was removed using the NAP-5 column equilibrated with nucleotide exchange buffer (40 mM HEPES-NaOH (pH 7.5), 50 mM NaCl, 10 mM MgCl2, 2 mM DTT).
MANT-GDP exchange assay: First the MANT-GDP bound Kras G12D protein (in a final 1 μM molar concentration) was preincubated with the inhibitor molecules for 60 min. After the preincubation the samples were exposed to UV light for 10 min with a wavelength of 366 nm. The UV-treated MANT-GDP Kras-inhibitor mix was loaded into a black 384 well microplate. The nucleotide exchange reaction was initiated by adding 100 fold molar excess of GppNHp (catalog no.: G0635, Sigma-Aldrich), a non-hydrolyzable GTP analog and the SOS1 exchange domain (catalog no.: GE02, Cytoskeleton, Inc.) protein in 0.5 μM final concentration. The change in fluorescence intensity was measured every 30 s in room temperature for 60 min on an EnSpire plate reader (PerkinElmer, Inc.). The measured fluorescence values were fitted to a single exponential function by using GraphPad Prism 8 software.

Cc1ncc(CO)c(CNC(=O)CCC2(C)N=N2)c1O [PhP072, Cc1ncc(CO)c(c1O)CNC(=O)CCC2(C)N=N2]
normalized signal, Kras-SOS exchange (Figure 4c PhP072 irradiation) (time 30 sec): 0.9874
normalized signal, Kras-SOS exchange (Figure 4c PhP072 irradiation) (time 60 sec): 0.984
normalized signal, Kras-SOS exchange (Figure 4c PhP072 irradiation) (time 90 sec): 0.9869
normalized signal, Kras-SOS exchange (Figure 4c PhP072 irradiation) (time 120 sec): 0.9755
normalized signal, Kras-SOS exchange (Figure 4c PhP072 irradiation) (time 210 sec): 0.9893
normalized signal, Kras-SOS exchange (Figure 4c PhP072 irradiation) (time 240 sec): 1.005
normalized signal, Kras-SOS exchange (Figure 4c PhP072 irradiation) (time 270 sec): 0.9931
normalized signal, Kras-SOS exchange (Figure 4c PhP072 irradiation) (time 300 sec): 0.9815
normalized signal, Kras-SOS exchange (Figure 4c PhP072 irradiation) (time 330 sec): 0.9652
normalized signal, Kras-SOS exchange (Figure 4c PhP072 irradiation) (time 360 sec): 0.9672
normalized signal, Kras-SOS exchange (Figure 4c PhP072 irradiation) (time 390 sec): 0.9659
normalized signal, Kras-SOS exchange (Figure 4c PhP072 irradiation) (time 420 sec): 0.9589
normalized signal, Kras-SOS exchange (Figure 4c PhP072 irradiation) (time 450 sec): 0.9736
normalized signal, Kras-SOS exchange (Figure 4c PhP072 irradiation) (time 480 sec): 0.978
normalized signal, Kras-SOS exchange (Figure 4c PhP072 irradiation) (time 510 sec): 0.9558
normalized signal, Kras-SOS exchange (Figure 4c PhP072 irradiation) (time 540 sec): 0.9578
normalized signal, Kras-SOS exchange (Figure 4c PhP072 irradiation) (time 570 sec): 0.9776
normalized signal, Kras-SOS exchange (Figure 4c PhP072 irradiation) (time 600 sec): 0.972
normalized signal, Kras-SOS exchange (Figure 4c PhP072 irradiation) (time 630 sec): 0.974
normalized signal, Kras-SOS exchange (Figure 4c PhP072 irradiation) (time 660 sec): 0.9647
normalized signal, Kras-SOS exchange (Figure 4c PhP072 irradiation) (time 690 sec): 0.9564
normalized signal, Kras-SOS exchange (Figure 4c PhP072 irradiation) (time 720 sec): 0.9623
normalized signal, Kras-SOS exchange (Figure 4c PhP072 irradiation) (time 750 sec): 0.9619
normalized signal, Kras-SOS exchange (Figure 4c PhP072 irradiation) (time 780 sec): 0.9405
normalized signal, Kras-SOS exchange (Figure 4c PhP072 irradiation) (time 810 sec): 0.9601
normalized signal, Kras-SOS exchange (Figure 4c PhP072 irradiation) (time 840 sec): 0.9458
normalized signal, Kras-SOS exchange (Figure 4c PhP072 irradiation) (time 870 sec): 0.9534
normalized signal, Kras-SOS exchange (Figure 4c PhP072 irradiation) (time 900 sec): 0.9403
normalized signal, Kras-SOS exchange (Figure 4c PhP072 irradiation) (time 930 sec): 0.9459
normalized signal, Kras-SOS exchange (Figure 4c PhP072 irradiation) (time 960 sec): 0.9381
normalized signal, Kras-SOS exchange (Figure 4c PhP072 irradiation) (time 990 sec): 0.9447
normalized signal, Kras-SOS exchange (Figure 4c PhP072 irradiation) (time 1020 sec): 0.9591
normalized signal, Kras-SOS exchange (Figure 4c PhP072 irradiation) (time 1050 sec): 0.9368
normalized signal, Kras-SOS exchange (Figure 4c PhP072 irradiation) (time 1080 sec): 0.9576
normalized signal, Kras-SOS exchange (Figure 4c PhP072 irradiation) (time 1110 sec): 0.9476
normalized signal, Kras-SOS exchange (Figure 4c PhP072 irradiation) (time 1140 sec): 0.9304
normalized signal, Kras-SOS exchange (Figure 4c PhP072 irradiation) (time 1170 sec): 0.9558
normalized signal, Kras-SOS exchange (Figure 4c PhP072 irradiation) (time 1200 sec): 0.9429
normalized signal, Kras-SOS exchange (Figure 4c PhP072 irradiation) (time 1230 sec): 0.9405
normalized signal, Kras-SOS exchange (Figure 4c PhP072 irradiation) (time 1260 sec): 0.9391
normalized signal, Kras-SOS exchange (Figure 4c PhP072 irradiation) (time 1290 sec): 0.9393
normalized signal, Kras-SOS exchange (Figure 4c PhP072 irradiation) (time 1320 sec): 0.944
normalized signal, Kras-SOS exchange (Figure 4c PhP072 irradiation) (time 1350 sec): 0.9654
normalized signal, Kras-SOS exchange (Figure 4c PhP072 irradiation) (time 1380 sec): 0.9701
normalized signal, Kras-SOS exchange (Figure 4c PhP072 irradiation) (time 1410 sec): 0.9426
normalized signal, Kras-SOS exchange (Figure 4c PhP072 irradiation) (time 1440 sec): 0.9472
normalized signal, Kras-SOS exchange (Figure 4c PhP072 irradiation) (time 1470 sec): 0.9361
normalized signal, Kras-SOS exchange (Figure 4c PhP072 irradiation) (time 1500 sec): 0.939
normalized signal, Kras-SOS exchange (Figure 4c PhP072 irradiation) (time 1530 sec): 0.9519
normalized signal, Kras-SOS exchange (Figure 4c PhP072 irradiation) (time 1560 sec): 0.9436
normalized signal, Kras-SOS exchange (Figure 4c PhP072 irradiation) (time 1590 sec): 0.9444
normalized signal, Kras-SOS exchange (Figure 4c PhP072 irradiation) (time 1620 sec): 0.9461
normalized signal, Kras-SOS exchange (Figure 4c PhP072 irradiation) (time 1650 sec): 0.9444
normalized signal, Kras-SOS exchange (Figure 4c PhP072 irradiation) (time 1680 sec): 0.9402
normalized signal, Kras-SOS exchange (Figure 4c PhP072 irradiation) (time 1710 sec): 0.948
normalized signal, Kras-SOS exchange (Figure 4c PhP072 irradiation) (time 1740 sec): 0.9364
normalized signal, Kras-SOS exchange (Figure 4c PhP072 irradiation) (time 1770 sec): 0.939
normalized signal, Kras-SOS exchange (Figure 4c PhP072 irradiation) (time 1800 sec): 0.9328
normalized signal, Kras-SOS exchange (Figure 4c PhP072 irradiation) (time 1830 sec): 0.9307
normalized signal, Kras-SOS exchange (Figure 4c PhP072 irradiation) (time 1860 sec): 0.9265
normalized signal, Kras-SOS exchange (Figure 4c PhP072 irradiation) (time 1890 sec): 0.9579
normalized signal, Kras-SOS exchange (Figure 4c PhP072 irradiation) (time 1920 sec): 0.9312
normalized signal, Kras-SOS exchange (Figure 4c PhP072 irradiation) (time 1950 sec): 0.9362
normalized signal, Kras-SOS exchange (Figure 4c PhP072 irradiation) (time 1980 sec): 0.9324
normalized signal, Kras-SOS exchange (Figure 4c PhP072 irradiation) (time 2010 sec): 0.9475
normalized signal, Kras-SOS exchange (Figure 4c PhP072 irradiation) (time 2040 sec): 0.9452
normalized signal, Kras-SOS exchange (Figure 4c PhP072 irradiation) (time 2070 sec): 0.9435
normalized signal, Kras-SOS exchange (Figure 4c PhP072 irradiation) (time 2100 sec): 0.9537
normalized signal, Kras-SOS exchange (Figure 4c PhP072 irradiation) (time 2130 sec): 0.9458
normalized signal, Kras-SOS exchange (Figure 4c PhP072 irradiation) (time 2160 sec): 0.9297
normalized signal, Kras-SOS exchange (Figure 4c PhP072 irradiation) (time 2190 sec): 0.9168
normalized signal, Kras-SOS exchange (Figure 4c PhP072 irradiation) (time 2220 sec): 0.941
normalized signal, Kras-SOS exchange (Figure 4c PhP072 irradiation) (time 2250 sec): 0.934
normalized signal, Kras-SOS exchange (Figure 4c PhP072 irradiation) (time 2280 sec): 0.9076
normalized signal, Kras-SOS exchange (Figure 4c PhP072 irradiation) (time 2310 sec): 0.9404
normalized signal, Kras-SOS exchange (Figure 4c PhP072 irradiation) (time 2340 sec): 0.9263
normalized signal, Kras-SOS exchange (Figure 4c PhP072 irradiation) (time 2370 sec): 0.9501
normalized signal, Kras-SOS exchange (Figure 4c PhP072 irradiation) (time 2400 sec): 0.9106
normalized signal, Kras-SOS exchange (Figure 4c PhP072 irradiation) (time 2430 sec): 0.9173
normalized signal, Kras-SOS exchange (Figure 4c PhP072 irradiation) (time 2460 sec): 0.928
normalized signal, Kras-SOS exchange (Figure 4c PhP072 irradiation) (time 2490 sec): 0.9153
normalized signal, Kras-SOS exchange (Figure 4c PhP072 irradiation) (time 2520 sec): 0.9464
normalized signal, Kras-SOS exchange (Figure 4c PhP072 irradiation) (time 2550 sec): 0.9246
normalized signal, Kras-SOS exchange (Figure 4c PhP072 irradiation) (time 2580 sec): 0.9142
normalized signal, Kras-SOS exchange (Figure 4c PhP072 irradiation) (time 2910 sec): 0.92
normalized signal, Kras-SOS exchange (Figure 4c PhP072 irradiation) (time 2940 sec): 0.9177
normalized signal, Kras-SOS exchange (Figure 4c PhP072 irradiation) (time 2970 sec): 0.9062
normalized signal, Kras-SOS exchange (Figure 4c PhP072 irradiation) (time 3000 sec): 0.928
normalized signal, Kras-SOS exchange (Figure 4c PhP072 irradiation) (time 3030 sec): 0.9131
normalized signal, Kras-SOS exchange (Figure 4c PhP072 irradiation) (time 3060 sec): 0.9065
normalized signal, Kras-SOS exchange (Figure 4c PhP072 irradiation) (time 3090 sec): 0.9086
normalized signal, Kras-SOS exchange (Figure 4c PhP072 irradiation) (time 3120 sec): 0.9109
normalized signal, Kras-SOS exchange (Figure 4c PhP072 irradiation) (time 3150 sec): 0.9207
normalized signal, Kras-SOS exchange (Figure 4c PhP072 irradiation) (time 3180 sec): 0.8921
normalized signal, Kras-SOS exchange (Figure 4c PhP072 irradiation) (time 3210 sec): 0.9129
normalized signal, Kras-SOS exchange (Figure 4c PhP072 irradiation) (time 3240 sec): 0.8834
normalized signal, Kras-SOS exchange (Figure 4c PhP072 irradiation) (time 3270 sec): 0.9149
normalized signal, Kras-SOS exchange (Figure 4c PhP072 irradiation) (time 3300 sec): 0.9074
normalized signal, Kras-SOS exchange (Figure 4c PhP072 irradiation) (time 3330 sec): 0.9207
Effect on SOS1-mediated nucleotide exchange of KRas (prior to irradiation): little effect
Effect on SOS1-mediated nucleotide exchange of KRas (upon irradiation (366 nm, 10 min)): fully restores KRas function to the control level; also recorded: restore KRas function
